Test results: US11840535B2, “Alkynyl(hetero)aromatic compound for inhibiting protein kinase activity” (Shenzhen TargetRx, Inc., priority 2018, dated 2023)

Tests used:
[1] = Metabolic stability evaluation, human liver microsome assay; assay type: in vitro ADME; details: pH 7.4, human liver microsomes 0.5 mg/mL, compound 1 μM, 37° C.; for microsomal CLint at 1 μM: read-out: HLM Clint; for half-life at 1 μM: read-out: HLM T1/2
Method: Microsome assay: human liver microsomes: 0.5 mg/mL, Xenotech; coenzyme (NADPH/NADH): 1 mM, Sigma Life Science; magnesium chloride: 5 mM, 100 mM phosphate buffer (pH is 7.4).
Preparation of stock solution: Powder of the example compounds and the reference compound were accurately weighed, and dissolved to 5 mM with DMSO, respectively.
Preparation of phosphate buffer (100 mM, pH7.4): Pre-formulated 150 mL 0.5 M potassium dihydrogen phosphate and 700 mL 0.5 M dipotassium hydrogen phosphate were mixed, then the pH of the mixture was adjusted to 7.4 with 0.5 M dipotassium hydrogen phosphate. Before use, 5-fold dilution was made with ultra-pure water, and magnesium chloride was added to afford phosphate buffer (100 mM), which containing 100 mM potassium phosphate, 3.3 mM magnesium chloride, and pH is 7.4.
NADPH regeneration system solution (containing 6.5 mM NADP, 16.5 mM G-6-P, 3 U/mL G-6-P D, 3.3 mM magnesium chloride) was prepared and placed on wet ice before use.
Preparation of stop solution: Acetonitrile solution containing 50 ng/mL propranolol hydrochloride and 200 ng/mL tolbutamide (internal standard). 25057.5 μL phosphate buffer (pH 7.4) was taken into a 50 mL centrifuge tube, and 812.5 μL human liver microsome was added respectively, mixed well to afford liver microsome diluention with a protein concentration of 0.625 mg/mL.
Incubation of the sample: The stock solutions of the corresponding compounds were diluted to 0.25 mM with an aqueous solution containing 70% acetonitrile as working solutions for use. 398 μL of human liver microsome diluention was taken and added to a 96-well incubation plate (N=2), respectively, and 2 μL of 0.25 mM working solutions were then added respectively, and mixed well.
Determination of metabolic stability: 300 μL of pre-chilled stop solution was added to each well of a 96-well deep well plate and the plate was placed on ice as a stop plate. The 96-well incubation plate and NADPH regeneration system were placed in a 37° C. water bath, shook at 100 rpm, and pre-incubated for 5 min. 80 μL of incubation solution was taken from each well of the incubation plate and added to the stop plate, mixed well, and 20 μL of NADPH regeneration system solution was supplemented, the resulted solution was considered as sample at 0 min. Then 80 μL of NADPH regeneration system solution was added to each well of the incubation plate to start the reaction and started timing. The reaction concentration of the corresponding compound is 1 μM, and the protein concentration is 0.5 mg/mL. 100 μL reaction solution was taken at 10, 30, 90 min of reaction, respectively, and added into stop plate, the reaction was stopped with 3 min vortex. The stop plate was centrifuged at 5000×g, 4° C. for 10 min. 100 μL of supernatant was taken to a 96-well plate where 100 μL of distilled water was added in advance, mixed well, sample analysis was carried out by LC-MS/MS.
Data analysis: LC-MS/MS system was used to detect peak area of corresponding compound and internal standard, peak area ratio of compound to internal standard was calculated. The slope was measured by plotting the natural logarithm of the remaining percentage of the compound versus time, and t1/2 and CLint were calculated according to the following formula, wherein V/M means 1/protein concentration.

ABL = ABL (Homo sapiens (Human), UniProt P00519); experiment: Biochemical kinase analysis, ABL
Method: (§1) Reagents and materials: ABL (ThermoFisher, Cat. No PV3585), ABL^T315I (Thermo Fisher, Cat. No. PR7429B), ATP (Sigma, Cat. No. A7699-1G), DMSO (Sigma, Cat. No. D2650), 96-well plate (Corning, Cat. No. 3365), 384-well plate (Greiner, Cat. No. 784076), buffer solution (Thermo Fisher, Cat. No. PR4876B).
(§2) Compound formulation: The test compounds were dissolved in DMSO to prepare a 20 mM stock solution. Before use, the compounds were diluted in DMSO to 0.1 mM, and diluted into 11 concentrations with a 3-fold gradient. When addition, diluentions of 4-fold final concentration were then made with buffer solution.
(§3) Kinase assay method: After preparing the buffer, the enzyme was mixed with pre-formulated and diluted compounds of different concentrations in duplicate for each concentration, and placed at room temperature for 30 minutes. The corresponding substrate and ATP were added thereto, and reacted at room temperature for 60 minutes (both a negative and a positive control were set). After the reaction, antibody was added for detection, Envision detection was carried out after 60 minutes incubation at room temperature, and data was collected. Data analysis and fitting were made according to XLfit5 software, wherein, A represents IC50≤5 nM, B represents IC50 is 5-50 nM, C represents IC50 is 50-100 nM, D represents IC50>100 nM.

Ba/F3 parental cells = experiment: Cell proliferation analysis, Ba/F3 parental; assay type: cell-based; details: Mus musculus, BaF3, 72 h; 8 ng/ml IL-3, 3 days, CellTiter-Glo
Method: (§4) The inhibitory effect of the example compounds on Ba/F3, Ba/F3 Bcr-Abl T315I cell activity was determined.
(§5) Materials and reagents: RPMI-1640 medium (GIBCO, Catalog No. A10491-01), fetal bovine serum (GIBCO, Catalog No. 10099141), antibiotics (Penicillin-Streptomycin), IL-3 (PeproTech), promycin; cell lines: Ba/F3, Ba/F3 Bcr-Abl T315I (Purchased from American type culture collection, ATCC), live cell detection kit […] (Promega, Catalog No. G7572), 96-well black wall transparent flat bottom cell culture plate (Corning, Catalog No. 3340).
(§6) Test method: 1. Preparation of cell plate: Ba/F3, Ba/F3 Bcr-Abl T315I cells were respectively seeded in 96-well plates, and 8 ng/ml IL-3 was added to the Ba/F3 cells, and the cell plates were placed in a carbon dioxide incubator and cultured overnight. 2. The test compounds were dissolved in DMSO, 9 compound concentrations were made with a 3.16-fold gradient dilution in triplicate. 3. Treatment of the cells with compounds: The compounds were transferred to the cell plate with a starting concentration of 10 μM. The cell plate was placed in a carbon dioxide incubator for 3 days. 4. Detection: CellTiter-Glo agent was added to the cell plate, and incubated at room temperature for 30 minutes to stabilize the luminous signal. PerkinElmer Envision multi-label analyzer was used for reading, wherein A represents […], B represents IC50 is 10-20 nM, C represents IC50 is 20-50 nM, D represents IC50 is 50-1000 nM, E represents IC50>1000 nM.

ABL^T315I = ABL^T315I (Homo sapiens (Human), UniProt P00519, T315I); experiment: Biochemical kinase analysis, ABL T315I
Method: as §1, §2, §3

[2] = system: Ba/F3 Bcr-Abl T315I cells; experiment: Cell proliferation analysis, Ba/F3 Bcr-Abl T315I; assay type: cell-based; details: for IC50: Mus musculus, BaF3, 72 h, 3 days, CellTiter-Glo; for Selectivity [Ba/F3 (parental/Bcr-Abl ^T315I)]: ratio of Ba/F3 parental to Ba/F3 Bcr-Abl T315I
Method: as §4, §5, §6

Row | microsomal CLint at 1 μM [1] [µL/min/mg] | half-life at 1 μM [1] [h] | IC50 (ABL) [nM] | IC50 (ABL^T315I) [nM] | IC50 [2] [nM] | SMILES | IC50 (Ba/F3 parental cells) [nM] | Selectivity [Ba/F3 (parental/Bcr-Abl ^T315I)] [2]
1 | 17 | 1.36 | ≤ 5 | ≤ 5 | ≤ 10 | CCn1cc(C#Cc2cc(NC(=O)c3ccc(CN4CCN(C)CC4)c(C(F)(F)F)c3)ccc2C)c2c(N)ncnc21 [Example 18, N-(3-((4-amino-7-ethyl-7H-pyrrolo[2,3-d]pyrimidin-5-yl)ethynyl)-4-methylphenyl)-4-((4-methylpiperazin-1-yl)methyl)-3-(trifluoromethyl)benzamide] | > 1000 | 100~150
2 | 3.5 | 6.58 | ≤ 5 | ≤ 5 | 10 to 20 | CCn1cc(C#Cc2cc(C(=O)Nc3cccc(C(F)(F)F)c3)ccc2C)c2c(N)ncnc21 [Example 6, 3-((4-amino-7-ethyl-7H-pyrrolo[2,3-d]pyrimidin-5-yl)ethynyl)-4-methyl-N-(3-(trifluoromethyl)phenyl)benzamide] | > 1000 | 100~150
3 | 19.9 | 1.16 | ≤ 5 | ≤ 5 | ≤ 10 | CCn1cc(C#Cc2cc(C(=O)Nc3ccc(CN4CCN(C)CC4)c(C(F)(F)F)c3)ccc2C)c2c(N)ncnc21 [Example 5, 3-((4-amino-7-ethyl-7H-pyrrolo[2,3-d]pyrimidin-5-yl)ethynyl)-4-methyl-N-(4-((4-methylpiperazin-1-yl)methyl)-3-(trifluoromethyl)phenyl)benzamide] | 50 to 1000 | 100~150

Second part, the compound before the results:

Row | SMILES | microsomal CLint at 1 μM [1] [µL/min/mg] | half-life at 1 μM [1] [h] | IC50 (ABL) [nM] | IC50 (ABL^T315I) [nM] | IC50 [2] [nM] | IC50 (Ba/F3 parental cells) [nM] | Selectivity [Ba/F3 (parental/Bcr-Abl ^T315I)] [2]
4 | Cc1ccc(NC(=O)c2ccc(CN3CCN(C)CC3)c(C(F)(F)F)c2)cc1C#Cc1cn([C@H]2CC[C@H](O)CC2)c2ncnc(N)c12 [Example 25, N-(3-((4-amino-7-((1r,4r)-4-hydroxycyclohexyl)-7H-pyrrolo[2,3-d]pyrimidin-5-yl)ethynyl)-4-methylphenyl)-4-((4-methylpiperazin-1-yl)methyl)-3-(trifluoromethyl)benzamide] | 7.6 | 3.03 | ≤ 5 | ≤ 5 | 20 to 50 | > 1000 | 0~50
5 | CCn1cc(C#Cc2cc(NC(=O)c3cccc(C(F)(F)F)c3)ccc2C)c2c(N)ncnc21 [Example 17, N-(3-((4-amino-7-ethyl-7H-pyrrolo[2,3-d]pyrimidin-5-yl)ethynyl)-4-methylphenyl)-3-(trifluoromethyl)benzamide] | 17.2 | 1.34 | ≤ 5 | ≤ 5 | 10 to 20 | > 1000 | 50~100
6 | Cc1cn(-c2cc(NC(=O)c3ccc(C)c(C#Cc4cn(C(C)C)c5ncnc(N)c45)c3)cc(C(F)(F)F)c2)cn1 [Example 12, 3-((4-amino-7-isopropyl-7H-pyrrolo[2,3-d]pyrimidin-5-yl)ethynyl)-4-methyl-N-(3-(4-methyl-1H-imidazol-1-yl)-5-(trifluoromethyl)phenyl)benzamide] | 20.9 | 1.11 | 5 to 50 | 5 to 50 | 20 to 50 | > 1000 | 150~500
7 | Cc1ccc(C(=O)Nc2ccc(CN3CCN(C)CC3)c(C(F)(F)F)c2)cc1C#Cc1cn([C@H]2CC[C@H](O)CC2)c2ncnc(N)c12 [Example 22, 3-((4-amino-7-((1r,4r)-4-hydroxycyclohexyl)-7H-pyrrolo[2,3-d]pyrimidin-5-yl)ethynyl)-4-methyl-N-(4-((4-methylpiperazin-1-yl)methyl)-3-(trifluoromethyl)phenyl)benzamide] | 6.1 | 3.8 | ≤ 5 | ≤ 5 | 20 to 50 | > 1000 | 0~50
8 | Cc1ccc(C(=O)Nc2ccc(CN3CCN(C)CC3)c(C(F)(F)F)c2)cc1C#Cc1cn(C(C)C)c2ncnc(N)c12 [Example 15, 3-((4-amino-7-isopropyl-7H-pyrrolo[2,3-d]pyrimidin-5-yl)ethynyl)-4-methyl-N-(4-((4-methylpiperazin-1-yl)methyl)-3-(trifluoromethyl)phenyl)benzamide] | 11.8 | 1.95 | ≤ 5 | ≤ 5 | 20 to 50 | > 1000 | 0~50
